According to patent US20260000496A1, “MATERIALS AND METHODS FOR DRUG-INDUCED GINGIVAL OVERGROWTH” (Optimed Technology, Inc., priority 2019, published 2026):

Columns and labels:
[1] = tested on: drug-induced gingival overgrowth (DIGO); experiment: Mice study #1: pilot DIGO model (suture + cyclosporine), gingival overgrowth; type: in vivo, BALB/c mice
Excerpt: Animal Study. […] Therefore, we developed a novel in-vivo anterior ligature model to develop DIGO. We examined two strains of mice, BALB/c and C57BL/6 were used. Sterile ligature (5-0 Silk thread) were placed around the lower central incisors on both sides in mice for 14 days at anaesthetized conditions using ketamine and xylazine. Mice were daily checked for placement of suture. […] The vehicle used to dissolve the drug was 10% ethanol and 10% polyethyleneglycol castor oil (Sigma-Aldrich, St. Louis MO) in sterilized distilled water to a volume of 100%. All mice were scarified at day 14. Euthanasia was performed using carbon dioxide followed by cervical dislocation.
In the combined prevention and treatment group, both modes of folic acid treatments were provided including PO and local gel application. […]
A 3Shape TRIOS® intraoral digital scanner was used to scan all of the dissected tissue and create a 3D STL (STereoLithography) file from each scan. […] The cropped scans were saved and imported into open source software platform 3DSlicer 4.8, where they were volumetrically analyzed using the “Volumes” module. The quantified volume values were statistically analyzed in GraphPad Prism® 7 (GraphPad Software Inc., CA, USA).

TLR4 = experiment: FACS of surface TLR4 on oral keratinocytes; type: cell-based, human; settings: LPS (10 μg/ml), Phe (10 μg/ml), different concentration of folic acid, 24 hours
Experimental: Flow cytometry. NOKSI cells were seeded in 100 mm plates with a density of 1×10^6 cells per plate. Cells were treated with drugs, LPS, and folic acid alone or in combination. After NOKSI were detached using Corning Cell Lifter (Corning) and 10 mM EDTA in PBS, the cells were washed with FACS buffer (PBS containing 1% BSA [Sigma] and 2 mM EDTA). Cells were stained by immunofluorescence for CD282 (TLR2) and CD284 (TLR4). Fluorescent labeled antibodies at a dilution of 1:1000 in staining buffer with 2% FBS in PBS were added and incubated for 30 min in dark on ice. Cells were centrifuged and washed thrice in staining buffer and passed through a 70 μm cell strainer before data acquisition. Data analysis was performed using FlowJo (TreeStar, Ashland, OR, USA). All incubations were performed on ice.
Oral Keratinocytes Cells were treated with only LPS (10 μg/ml) for 24 hours. […] Cells were treated with LPS (10 μg/ml) and Phe (10 μg/ml) for 24 hours. […] Cells were treated with LPS (10 μg/ml), Phe (10 μg/ml), and FA ([…]) for 24 hours. […] FIG. 16.

p-P65 = experiment: Immunofluorescence of p-P65 nuclear translocation in oral keratinocytes; type: cell-based, human; settings: 24 hours
Experimental: Immunostaining and fluorescence microscopy. The cultured cells were fixed with 4% paraformaldehyde followed by permeabilization with phosphate buffered saline (PBS) containing 0.1% Triton X-100 (PBS-T), and blocking with PBS-T containing 5% bovine serum albumin (BSA). Then, the cells were incubated with anti-pP65 antibody (Cell Signaling, USA) followed by Alexa Fluor 488 conjugated-goat anti-rabbit secondary antibody (Invitrogen, Grand Island). Rhodamine phalloidin (Invitrogen) and 4′,6-diamidino-2-phenylindole (Vector labs, Burlingame) were added to visualize the actin and nucleus respectively. The samples were mounted and examined using a Zoe microscope (BioRad, USA). The image analyses were performed using the ImageJ (NIH) software.
Oral Keratinocytes cells were cultured, and treated with CSA, LPS or FA alone or with combinations and incubated for 24 hours. The immunofluorescent images were taken to determine the translocation of p-P65 (green) to the nucleus (blue). Cells were counterstained with Phalloidin (cytoskeleton, red) and DAPI (nucleus).
Oral Keratinocytes cells were seeded in 24 well plates. […] Translocation of phospho-p65 (p-P65) protein to the nucleus was determined by fluorescence microscopy as shown in the green color. The morphology of cells and nucleus position were determined by palloidin and DAPI staining shown by red and blue colors respectively.

Myd88 = experiment: Mice study #2: Myd88 immunostaining of gingival tissue; type: in vivo, C57BL/6 mice; settings: preventive and active treatment groups consistent
Experimental: Mice study #2: Validation study for preventive and active treatment for DIGO. […] One set of these mice were used as a control disease group (FIG. 23A) while the other group was treated with folic acid (gel and in drinking water) (FIG. 23B). In the prevention and treatment group, folic acid (10 μg/ml) (Sigma-Aldrich, St. Louis MO) was included in the drinking water from the time of suture placement until end of the study (14 days). Additionally, gel applications were repeated daily until the end of the study (14 days). The four groups in this study were: • 1. Control group (n=2): no interventions were performed • 2.
Histopathology and Immunohistochemistry. Mice mandibles were fixed in 10% formaldehyde for overnight at 4° C. on the shaker with 45 rpm and then the solutions were replaced with 70% ethanol. The tissues were decalcified with 10% ethylenediaminetetraacetic acid (EDTA) for 1 week and were dehydrated through graded ethanol, cleared with xylene, and embedded in paraffin. 4 μm serial sections were cut in a buccal-lingual direction and stained with Hematoxylin and Eosin (HE) and observed under light microscopy for histomorphological evaluations.
For immunohistochemistry, unstained sections were deparaffinized in xylene for 10 minutes and then transferred to ethanol for 20 minutes. […]

## Nc1nc2ncc(CNc3ccc(C(=O)N[C@@H](CCC(=O)O)C(=O)O)cc3)nc2c(=O)[nH]1 [folic acid]
[1]; prevention sample vs disease sample, overlaid scans
  gingival overgrowth, 3D volumetric analysis: reduced gingival overgrowth
[1]; prevention: folic acid p.o. (10 μg/ml drinking water) & local gel, apparent at day 8, vs disease group
  gingival swelling and inflammation, clinical images: less swelling and inflammation
TLR4
  TLR4 receptor on the cell surface: do not alter
p-P65; CSA, LPS or FA alone or in combinations
  translocation of p-P65 to the nucleus: inhibits CSA-induced activation of phospho-P65
p-P65; LPS, Phe, FA each 10 μg/ml
  translocation of phospho-p65 (p-P65) protein to the nucleus: reduced nuclear translocation of p-P65
Myd88
  epithelial Myd88 expression, disease group relative to folic acid-treated group: significantly higher compared to both treated and control groups
